In the supplement of paper PMC6045584:
± gives the standard deviation of the averaged measurements.

Assays:
PLX-4720 = compound: CCCS(=O)(=O)Nc1ccc(F)c(C(=O)c2c[nH]c3ncc(Cl)cc23)c1F [PLX-4720]; assay: surviving fraction relative to DMSO-only wells; higher = less growth inhibition; details: exposure time: 5 days
How it was run: (§1)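 Log-phase tumour cells were seeded at 250–500 per well in 384-well plates and, from 24 hours after seeding, exposed continuously for five days to inhibitors at 0.5, 1, 5, 10, 50, 100, 500 and 1000 nM. Surviving fraction is CellTiter-Glo luminescence normalised to the median of DMSO-only wells. Luminescence was measured after 10 minutes at room temperature, and only lines screened three times with replicate Pearson r >0.7 and median Z' >0.3 were kept.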

ETOPOSIDE = compound: COc1cc([C@@H]2c3cc4c(cc3[C@@H](O[C@@H]3O[C@@H]5CO[C@@H](C)O[C@H]5[C@H](O)[C@H]3O)[C@H]3COC(=O)[C@H]23)OCO4)cc(OC)c1O [ETOPOSIDE]; assay: as above; details: exposure time: 5 days
How it was run: as §1

Test System	surviving fraction (PLX-4720; 0.5 nM)	surviving fraction (PLX-4720; 1 nM)	surviving fraction (PLX-4720; 5 nM)	surviving fraction (PLX-4720; 10 nM)	surviving fraction (PLX-4720; 50 nM)	surviving fraction (PLX-4720; 100 nM)	surviving fraction (PLX-4720; 500 nM)	surviving fraction (PLX-4720; 1000 nM)	surviving fraction (ETOPOSIDE; 0.5 nM)	surviving fraction (ETOPOSIDE; 1 nM)	surviving fraction (ETOPOSIDE; 5 nM)	surviving fraction (ETOPOSIDE; 10 nM)	surviving fraction (ETOPOSIDE; 50 nM)	surviving fraction (ETOPOSIDE; 100 nM)	surviving fraction (ETOPOSIDE; 500 nM)	surviving fraction (ETOPOSIDE; 1000 nM)
HUO3N1 BONE	0.849 ± 0.014	0.886 ± 0.035	0.92 ± 0.055	0.913 ± 0.042	0.989 ± 0.028	1.02 ± 0.059	1.01 ± 0.063	1.01 ± 0.067	0.956 ± 0.017	0.936 ± 0.05	0.982 ± 0.06	1.01 ± 0.042	1.01 ± 0.019	0.96 ± 0.057	0.519 ± 0.01	0.376 ± 0.012
CAL72 BONE	0.969 ± 0.041	1.02 ± 0.036	0.964 ± 0.015	1.03 ± 0.035	1.076 ± 0.006	1.104 ± 0.011	1.09 ± 0.04	1.08 ± 0.036	1.05 ± 0.026	1.05 ± 0.037	1.06 ± 0.048	1.05 ± 0.05	1.07 ± 0.051	1.07 ± 0.039	0.684 ± 0.029	0.358 ± 0.03
LNCAP PROSTATE	1.17 ± 0.08	1.08 ± 0.051	1.15 ± 0.097	1.12 ± 0.035	0.892 ± 0.11	0.846 ± 0.011	0.898 ± 0.09	1.03 ± 0.12	0.86 ± 0.18	0.951 ± 0.078	0.868 ± 0.13	0.94 ± 0.058	0.9023 ± 0.0057	0.77 ± 0.051	0.438 ± 0.046	0.301 ± 0.025
G292 BONE	0.893 ± 0.022	0.977 ± 0.042	0.973 ± 0.039	0.972 ± 0.043	0.956 ± 0.024	1.0012 ± 0.00029	0.979 ± 0.026	0.973 ± 0.085	0.964 ± 0.035	0.976 ± 0.041	1 ± 0.087	0.978 ± 0.06	0.942 ± 0.02	0.796 ± 0.014	0.437 ± 0.019	0.352 ± 0.012
SCC003 HEADNECK	0.76 ± 0.094	0.825 ± 0.065	0.829 ± 0.14	0.81 ± 0.11	0.983 ± 0.06	1.02 ± 0.034	1.01 ± 0.035	1.02 ± 0.17	1.04 ± 0.092	1.05 ± 0.13	1.11 ± 0.069	1.07 ± 0.051	1.1 ± 0.063	1.08 ± 0.068	0.849 ± 0.15	0.604 ± 0.041
C33A CERVIX	1.03 ± 0.18	0.994 ± 0.044	1.12 ± 0.14	1.13 ± 0.045	1.01 ± 0.17	1.05 ± 0.13	0.946 ± 0.1	1.06 ± 0.13	0.794 ± 0.11	0.967 ± 0.064	0.918 ± 0.016	1.05 ± 0.071	0.923 ± 0.045	0.726 ± 0.024	0.251 ± 0.027	0.155 ± 0.01
